Results on 22 compounds are retold here after article PMC6269915, “Design, Synthesis and Evaluation of 3-(2-Aminoheterocycle)-4-benzyloxyphenylbenzamide Derivatives as BACE-1 Inhibitors” (Molecules, 2013).

“Also recorded” adds a separate entry of the source. Counter-ions that a name gives are not always drawn. Like-named read-outs stand apart in the source and are kept apart here. Bounds are passed on as bounds.

The target in series [1] is T1, BACE-1 (Homo sapiens, UniProt P56817).
T1 construct: host or cells: insect cells
Nature of the series: BACE-1 inhibition, fluorescence resonance energy transfer (FRET) assay. The series is classed as biochemical. The following applies: BACE-1 FRET assay; for inhibition at 20 µg/mL: 20 μg/mL. How it is done:
The obtained target compounds were tested for their BACE-1 inhibitory activities using a fluorescence resonance energy transfer (FRET) assay, with OM99-2, a potent peptidomimetic inhibitor, as the positive control.
All synthesized compounds were tested for their BACE 1 inhibitor activities using a fluorescence resonance energy transfer (FRET) assay, which used purified insect-expressed BACE-1 and a specific substrate. An excitation wavelength of 355 nm and an emission wavelength of 460 nm were used to monitor the hydrolysis of substrate.

Details of series [2]: method as in PMID 19409780. The settings on record: mice, 20 mg/kg iv, t = 30 min; cited from earlier work.
The next series relates to P-gp (MDR1). Description: Bidirectional transport across MDCK-MDR1 monolayer cells. The series is classed as in vitro ADME, canine. The following applies: dog. As for the experimental part:
(§1) Blood-brain barrier (BBB) permeation is critical for any AD therapeutic drug.
(§2) Madin-Darby canine kidney cell line (MDCK) was obtained from Peking Union Medical College (Beijing, China). The MDR1-transfected MDCK-MDR1 cells were established in Prof. Su Zeng’s laboratory as follows: MDCK cells were seeded onto six-well plates with a seeding density of 1 × 10^5 cells/well and cultured for 48 h. pcDNA3.1(+)/MDR1 plasmid vector was transfected into MDCK cells using Lipofectamine ^TM 2000 reagent according to the manufacturer’s instructions. Cells were subcultured in DMEM containing 600 µg/mL G418 for 96 h, and then replaced by DMEM containing 800 μg/mL G418 for a further 24 h. Cells were transferred to culture bottle and incubated in DMEM supplemented with 600 μg/mL G418 for 20 days. 19 stable transfected monoclonals grown on 96-well plates were obtained after dilution screening. Cells were cultured in DMEM with 10% fetal bovine serum, and grown in a humidified atmosphere of 5% CO2 at 37 °C. A solution of 0.25% trypsin-EDTA was used to detach the cells from flasks.
(§3) MDCK and MDCK-MDR1 cells were washed twice and equilibrated at 37 °C for 30 min with pre-warmed transport buffer. Hanks’ balanced salted solution (HBSS) containing HEPES (25 mM, pH 7.4). The transport buffer containing drug passed through a 0.2 μm membrane filter for degerming. For the absorption study (Apical to Basolateral), 0.5 mL incubation medium containing drug was added to the apical side as a donor chamber, 1.5 mL fresh incubation medium was added to the basolateral side as a receiver chamber. For the secretion study (Basolateral to Apical), 1.5 mL incubation medium containing drug was added to the basolateral side as a donor chamber, 0.5 mL fresh incubation medium was added to the apical side as a receiver chamber. Transport studies were conducted at 37 °C in a humidiﬁed incubator with shaking (50 rpm) for 1 h, and then the collected samples were analyzed by HPLC. Apparent permeability coefficients (Papp(A-B), Papp(B-A)) and efflux ratio (Pratio = (Papp(B-A)/Papp(A-B)) were used to evaluate the permeability and absorption profiles of compounds. P ratio is an important parameter to denote if a compound is a substrate of P-gp or not.

In another series the test system is MDCK-MDR1 cells. The series is described as above. The series is classed as in vitro ADME, canine. How it is done:
as §1, §2, §3

A short description of series [3]: Bidirectional transport across MDCK monolayer cells. The series is classed as in vitro ADME, canine. The following applies: dog. As for the experimental part:
as §1, §2
as §3, with “Apparent permeability coefficients (Papp(A-B), Papp(B-A)) and efflux ratio (Pratio = (Papp(B-A)/Papp(A-B)) were used to evaluate the permeability and absorption profiles of compounds. P ratio is an important parameter to denote if a compound is a substrate of P-gp or not.” left out

On the set-up of series [4]: method as in PMID 17156133. The following applies: in words; cited from earlier work.
The target in series [5] is T1, BACE-1. The following applies: cited from earlier work.
Where [6] appears, read: pH 7.4, MDCK-MDR1, 55.6 μM 5e, 1 h, mean ± SD, n = 3.
Where [7] appears, read: pH 7.4, 55.6 μM 5e, 1 h, mean ± SD, n = 3.

T1 sequence (P56817 46-501): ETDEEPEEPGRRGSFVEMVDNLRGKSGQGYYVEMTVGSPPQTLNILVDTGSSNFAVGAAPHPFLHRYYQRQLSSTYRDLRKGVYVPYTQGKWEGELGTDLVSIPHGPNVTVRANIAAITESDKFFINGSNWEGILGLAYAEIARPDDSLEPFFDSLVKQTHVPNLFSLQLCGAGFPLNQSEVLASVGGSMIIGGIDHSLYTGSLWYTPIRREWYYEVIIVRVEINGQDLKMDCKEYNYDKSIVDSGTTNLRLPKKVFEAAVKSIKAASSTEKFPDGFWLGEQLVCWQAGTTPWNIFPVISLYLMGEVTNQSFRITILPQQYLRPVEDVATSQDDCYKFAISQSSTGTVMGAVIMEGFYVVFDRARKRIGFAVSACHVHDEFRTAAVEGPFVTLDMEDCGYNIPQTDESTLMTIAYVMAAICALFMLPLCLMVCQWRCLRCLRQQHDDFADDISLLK

`COc1ccc(C(=O)Nc2ccc(OCc3ccccc3)c(-c3coc(N)n3)c2)cc1` [4d, N-(3-(2-Aminooxazol-4-yl)-4-(benzyloxy)phenyl)-4-methoxybenzamide] registered an inhibition at 20 µg/mL on BACE-1 [1] of 34.4 ± 5.7%.

Turning to `Br.COc1ccc(C(=O)Nc2ccc(OCc3ccccc3)c(C3=NN=C(N)SC3)c2)cc1` [5d, N-(3-(2-Amino-6H-1,3,4-thiadiazin-5-yl)-4-(benzyloxy)phenyl)-4-methoxybenzamide hydrobromide], the melting point is 181 to 182 °C. Also, at BACE-1 [1], the IC50 was greater than 20 µM and the inhibition at 20 µg/mL was 84.9 ± 16.7%.

For the compound `Nc1nc(-c2cc(NC(=O)c3cccc4ccccc34)ccc2OCc2ccccc2)co1` [4e, N-(3-(2-Aminooxazol-4-yl)-4-(benzyloxy)phenyl)-1-naphthamide], the melting point lay in the range of 195 to 197 °C. For the same compound, 20 µg/mL produced 42.6 ± 3.2% inhibition at BACE-1 [1].

In turn, `Nc1nc(-c2cc(NC(=O)c3ccccc3)ccc2OCc2ccccc2)co1` [4a, N-(3-(2-Aminooxazol-4-yl)-4-(benzyloxy)phenyl)benzamide] had an inhibition at 20 µg/mL against BACE-1 [1] of 38.8 ± 0.3%.

In turn, `Nc1nc(-c2cc(NC(=O)c3ccc(Cl)cc3)ccc2OCc2ccccc2)co1` [4b, N-(3-(2-Aminooxazol-4-yl)-4-(benzyloxy)phenyl)-4-chlorobenzamide] displayed an inhibition at 20 µg/mL against BACE-1 [1] of 49.9 ± 0.2%.

Compound `Nc1nc(-c2cc(NC(=O)c3cccc4ccccc34)ccc2OCc2ccccc2)cs1` [3e, N-(3-(2-Aminothiazol-4-yl)-4-(benzyloxy)phenyl)-1-naphthamide] showed a melting point of 198 to 200 °C. At BACE-1 [1], this compound returned an IC50 greater than 20 µM and an inhibition at 20 µg/mL of 55.3 ± 5.7%.

As to `Br.NC1=NN=C(c2cc(NC(=O)c3ccc(Cl)cc3)ccc2OCc2ccccc2)CS1` [5b, N-(3-(2-Amino-6H-1,3,4-thiadiazin-5-yl)-4-(benzyloxy)phenyl)-4-chlorobenzamide hydrobromide], the melting point lay in the range of 217 to 218 °C. At BACE-1 [1], this compound yielded a half-maximal inhibitory concentration (IC50) greater than 20 µM and an inhibition at 20 µg/mL of 76 ± 2.5%.

On to `Nc1nc(-c2cc(NC(=O)c3cccnc3)ccc2OCc2ccccc2)cs1` [3f, N-(3-(2-Aminothiazol-4-yl)-4-(benzyloxy)phenyl)nicotinamide], for which the melting point was in the range of 212 to 213 °C. The compound further had an inhibition at 20 µg/mL at BACE-1 [1] of 36.8 ± 6.9%.

At BACE-1 [1], `Nc1nc(-c2cc(NC(=O)c3ccc(C(F)(F)F)cc3)ccc2OCc2ccccc2)cs1` [3c, N-(3-(2-Aminothiazol-4-yl)-4-(benzyloxy)phenyl)-4-(trifluoromethyl)benzamide] displayed an inhibition at 20 µg/mL of 33 ± 1.9%.

`COc1ccc(C(=O)Nc2ccc(OCc3ccccc3)c(-c3csc(N)n3)c2)cc1` [3d, N-(3-(2-Aminothiazol-4-yl)-4-(benzyloxy)phenyl)-4-methoxybenzamide] came in with an inhibition at 20 µg/mL against BACE-1 [1] of 29.5 ± 3.5%.

Regarding `Nc1nc(-c2cc(NC(=O)CCc3ccccc3)ccc2OCc2ccccc2)cs1` [3h, N-(3-(2-Aminothiazol-4-yl)-4-(benzyloxy)phenyl)-3-phenylpropanamide], the melting point fell in the range of 192 to 193 °C. Besides, testing at 20 µg/mL on BACE-1 [1] gave an inhibition of 3.1 ± 2.5%.

Consider `Br.NC1=NN=C(c2cc(NC(=O)c3ccccc3)ccc2OCc2ccccc2)CS1` [5a, N-(3-(2-Amino-6H-1,3,4-thiadiazin-5-yl)-4-(benzyloxy)phenyl)benzamide hydrobromide], for which the melting point lay in the range of 246 to 247 °C. Further, at BACE-1 [1], the 50% inhibitory concentration (IC50) was 16.7 µM and testing at 20 µg/mL gave an inhibition of 64.2 ± 0.5%.

`NC1=NC(c2ccccc2)(c2ccccc2)C2=NCCCN12` [compound 2]: the “[brain]” value in series [2] is 15 µM.

`Nc1nc(-c2cc(NC(=O)Cc3ccccc3)ccc2OCc2ccccc2)cs1` [3g, N-(3-(2-Aminothiazol-4-yl)-4-(benzyloxy)phenyl)-2-phenylacetamide]: the melting point fell in the range of 190 to 193 °C. 20 µg/mL produced 8.9 ± 7% inhibition on BACE-1 [1].

For the compound `NC1=NN=C(c2cc(NC(=O)c3ccc(C(F)(F)F)cc3)ccc2OCc2ccccc2)CS1` (as salt: hydrobromid) [5c, N-(3-(2-Amino-6H-1,3,4-thiadiazin-5-yl)-4-(benzyloxy)phenyl)-4-(trifluoromethyl)-benzamide hydro-bromide], the melting point was in the range of 222 to 225 °C.

As to `Br.NC1=NN=C(c2cc(NC(=O)c3cccc4ccccc34)ccc2OCc2ccccc2)CS1` [5e, N-(3-(2-Amino-6H-1,3,4-thiadiazin-5-yl)-4-(benzyloxy)phenyl)-1-naphthamide hydrobromide], the melting point lay in the range of 219 to 221 °C. Also, the efflux ratio at 1 h, 55.6 μM in the series with P-gp (MDR1) (MDCK-MDR1, pH 7.4, MDCK-MDR1, Papp(B-A)/Papp(A-B), read-out: Efflux ratio) amounted to 0.7. For the same compound, the efflux ratio at 1 h, 55.6 μM with P-gp (MDR1) (MDCK-MDR1, pH 7.4, MDCK-MDR1 versus MDCK, read-out: Net efflux ratio) was 0.71. In addition, in the series with P-gp (MDR1) (setting [6]), the Papp A→B at 1 h, 55.6 μM was determined as 31.8 ± 1.85 ×10⁻⁶ cm/s and the Papp B→A at 1 h, 55.6 μM stood at 22.2 ± 1.24 ×10⁻⁶ cm/s. Moreover, in the series on MDCK-MDR1 cells (MDCK and MDCK-MDR1 model, in words), the “Blood-brain barrier permeability assessment” value was “high brain uptake potential; also recorded: good penetration ability through the blood-brain barrier; also recorded: favorable blood-brain barrier permeability”. Besides, the P-gp substrate assessment result with MDCK-MDR1 cells (net efflux ratio less than FDA's recommendation of 2) is reported as “not a P-gp substrate”. At BACE-1 [1], this compound showed an IC50 of 9.9 µM and an inhibition at 20 µg/mL of 60 ± 3.1%. In series [3] (setting [7]), this compound yielded a Papp A→B at 1 h, 55.6 μM of 28.2 ± 6.45 ×10⁻⁶ cm/s and a Papp B→A at 1 h, 55.6 μM of 27.7 ± 2.87 ×10⁻⁶ cm/s. Besides, the efflux ratio at 1 h, 55.6 μM in series [3] (pH 7.4, Papp(B-A)/Papp(A-B)) was found to be 0.98.

In the case of `Nc1nc(-c2cc(NC(=O)c3ccccc3)ccc2OCc2ccccc2)cs1` [3a, N-(3-(2-Aminothiazol-4-yl)-4-(benzyloxy)phenyl)benzamide], the inhibition at 20 µg/mL at BACE-1 [1] is 29.3 ± 1.3%.

For `NC1=NN=C(c2cc(NC(=O)c3ccc(C(F)(F)F)cc3)ccc2OCc2ccccc2)CS1` [5c, N-(3-(2-Amino-6H-1,3,4-thiadiazin-5-yl)-4-(benzyloxy)phenyl)-4-(trifluoromethyl)-benzamide hydro-bromide], the inhibition at 20 µg/mL on BACE-1 [1] turned out to be 46.9 ± 7.5%.

For `Nc1nc(-c2cc(NC(=O)c3ccc(C(F)(F)F)cc3)ccc2OCc2ccccc2)co1` [4c, N-(3-(2-Aminooxazol-4-yl)-4-(benzyloxy)phenyl)-4-(trifluoromethyl)benzamide], the melting point fell in the range of 225 to 227 °C. Moreover, at 20 µg/mL the inhibition against BACE-1 [1] was 47.5 ± 9.9%.

In the case of `CCNc1cc(C(=O)N[C@@H](Cc2ccccc2)[C@H](O)CNCc2cccc(C(F)(F)F)c2)c(F)c(N2CCCCS2(=O)=O)c1` [GSK188909], in series [4], the blood-brain barrier permeability entry is “poor blood-brain barrier permeability”. In addition, on BACE-1 [5], the concentration for half-maximal inhibition (IC50) was 0.005 µM.

In the case of `Nc1nc(-c2cc(NC(=O)c3ccc(Cl)cc3)ccc2OCc2ccccc2)cs1` [3b, N-(3-(2-Aminothiazol-4-yl)-4-(benzyloxy)phenyl)-4-chlorobenzamide], the inhibition at 20 µg/mL against BACE-1 [1] came out at 20.4 ± 4.4%.

Consider `Nc1nc(-c2cc(NC(=O)Cc3cccc4ccccc34)ccc2OCc2ccccc2)cs1` [3i, N-(3-(2-Aminothiazol-4-yl)-4-(benzyloxy)phenyl)-2-(naphthalen-1-yl)acetamide], for which the melting point lay within 246 to 247 °C. Moreover, testing at 20 µg/mL against BACE-1 [1] gave an inhibition of 11.3 ± 0.7%.

By inhibition is commonly meant the relative decrease from the control value, in per cent. The low end stands for a response near the control, the high end for a response far below the control. By melting point is commonly meant the temperature, or range, at which the solid turns liquid. As usually defined, the IC50 is the concentration at which inhibition is half-maximal. Broadly, the Papp A→B is the apparent permeability from the apical to the basolateral side of a cell layer. Lower therefore signals poor permeation. What is called Papp B→A is how fast a substance crosses the layer from the basolateral side.
